The results in this text go back to US5843911A, “Hyaluronidase inhibitor containing god-type ellagitannin as active ingredient” (Suntory Limited, priority 1995, dated 1998).

Each structure is given as a SMILES string. pIC50: −log10 of the molar value.

In the experiment the target is T1, bovine testis-derived hyaluronidase (Type IV of Sigma) (Bos taurus, UniProt Q2YDK3).
T1 construct: purchased Sigma Type IV; host or cells: bovine testis
T1 sequence (Q2YDK3 36-553): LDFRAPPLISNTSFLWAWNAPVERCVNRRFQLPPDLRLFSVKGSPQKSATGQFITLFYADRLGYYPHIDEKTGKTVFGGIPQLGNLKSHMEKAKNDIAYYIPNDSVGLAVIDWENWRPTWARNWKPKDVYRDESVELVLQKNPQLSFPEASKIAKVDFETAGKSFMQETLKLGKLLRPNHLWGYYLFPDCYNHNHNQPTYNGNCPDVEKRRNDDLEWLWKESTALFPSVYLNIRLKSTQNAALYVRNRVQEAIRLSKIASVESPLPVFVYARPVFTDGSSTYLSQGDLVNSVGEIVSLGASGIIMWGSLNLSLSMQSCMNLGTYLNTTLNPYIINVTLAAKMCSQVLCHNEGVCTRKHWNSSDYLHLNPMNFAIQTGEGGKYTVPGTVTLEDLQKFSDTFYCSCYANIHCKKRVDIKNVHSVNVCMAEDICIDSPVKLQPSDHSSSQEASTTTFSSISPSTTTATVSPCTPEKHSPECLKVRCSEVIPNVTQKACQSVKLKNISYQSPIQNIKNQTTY
Nature of the experiment: Assay for the hyaluronidase inhibiting activity (inhibition of compound 48/80 activation of inactivated enzyme, colorimetric A585). The experiment is classed as biochemical. To be noted: 0.1M acetate buffer pH 4.0, 37° C., enzyme activated with compound 48/80, sodium hyaluronate substrate.

Procedure: Stated more specifically, a suitable amount of a test sample was dissolved in 100 μl of a 0.1M acetate buffer solution (pH 4.0) and the solution was pipetted into a test tube. Following the addition of 0.10 mg (100 NF units) of the enzyme dissolved in 50 μl of the same buffer solution, the mixture was incubated at 37° C. for 20 min. […] Thereafter, 200 μg of sodium hyaluronate derived from a microorganism dissolved in 250 μl of the same buffer solution was added and the mixture was incubated at 37° C. for 40 min. Finally, 100 μl of 0.4N NaOH was added and, after cooling with ice, 100 μl of a borate buffer solution (pH 9.10) was added and the mixture was boiled for 3 min; after cooling with ice, 3 ml of a p-dimethylaminobenzaldehyde solution was added and the mixture was incubated for 20 min at 37° C. before [MUT] measurement was conducted. In place of the sample solution, 0.1M acetate buffer solution (pH 4.0) was used to prepare a control. […] The hyaluronidase inhibiting activity of the sample solution was expressed by percent inhibition as determined from the following equation: [formula] where A: [MUT] of the control solution B: [MUT] of the blank for the control solution C: [MUT] of the sample solution D: [MUT] of the blank for the sample solution.

Take `O=C(O)c1cc(=O)c2c(OCC(O)COc3cccc4oc(C(=O)O)cc(=O)c34)cccc2o1` [Sodium cromoglycate]: the pIC50 is 3.52.

Usually pIC50 stands for −log10 of the IC50, conventionally taken in molar units.
